Experimental data as given in patent publication US20210228523A1, “MODULATORS OF SESTRIN-GATOR2 INTERACTION AND USES THEREOF” (Navitor Pharmaceuticals, Inc., priority 2017, published 2021).

Test system: Male Sprague Dawley rats
Assay: Forced swimming test (FST)
Type: in vivo, rat
Details: for FST time spent immobile / decrease in FST time spent immobile vs Sal / decrease in FST time spent immobile vs Veh: Example G; for decrease in FST time spent immobile vs Sal / decrease in FST time spent immobile vs Veh: p<0.05
Experimental: Study Design. Twenty (20) male rats weighing between 175 and 200 g were randomized into 3 study groups (n=6-7/group), following a 5-day acclimation period. All rats were surgically implanted with bilateral IT cannulas in the PFC 2 weeks prior to dosing. […] Thirty minutes following the intrathecal infusions, either NV-5138 vehicle (Veh-NV, 0.5% methylcellulose/0.1% Tween-80) or NV-5138 (160 mg/kg) was administered by oral gavage. Each treatment group was assessed at the designated time following oral dosing in FST 24 hrs (day 1) LMA 48 hrs (day 2) and the NSFT 72 hrs (day 3 following a 20 hr period of fasting). LMA was measured to rule out overall changes in generally locomotor activity. The study design is presented in Table 11 with timeline of surgical procedures, test article administration and behavioral tests is provided in FIG. 20
Preparation of Test Articles. Rapamycin (Cell Signaling; #9904) was prepared in a solution of 10% DMSO (Veh-R) to a final concentration of 10 μM. R or Veh-R was administered bilaterally (0.005 nmol/0.5 μL per side) into the medial PFC via IT infusion 30 min prior to treatment with NV-5138 or Veh-NV by oral gavage. NV-5138 (lot #07) was prepared by dissolving in Veh (0.5% methylcellulose/0.1% Tween-80) at a concentration of 50 mg/mL. The dosing volume based on the weight of the animal (3.2 mL/kg) was administered by oral gavage to study animals in Groups 2 and 3.
Surgical Procedure and Administration of Rapamycin. Rats were steriotactically implanted with a guide cannula (22GA) into the medial PFC (coordinates from bregma: +3.2 AP, ±1.0 ML, -3.5 DV from dura). Surgical procedures were carried out under the anesthesia of Nembutal (i.p. 55 mg/kg). Postoperative care consisted in peri-surgical administration of carprofen (5 mg/kg) and topical triple antibiotic. After a 2-week recovery period, R (0.01 nmol in 1 μL for PFC infusion) or Veh-R was delivered at the rate of 0.25 μL/min with an injection cannula (26GA) protruding 0.5 mm beyond the guide cannula 30 min before oral administration of NV-5138 or Veh-NV.
Study Design. Forty-eight (48) male rats weighing between 175 and 200 g were randomized into 6 study groups (n=8/group), following a 5-day acclimation period. A single dose of all test articles was administered on day 0 and the behavioral tests were performed 3, 7 and 10 days later. Groups 1 and 2 were dosed on day 0 with NV-5138 (160 mg/kg by oral gavage) and Ket (10 mg/kg by i.p. injection), respectively and subjected to a FST on day 3. The rats in Group 3 and 4 received a single dose of the NV-5138 vehicle (Veh) or NV-5138 (160 mg/kg), respectively, by oral gavage on day 0. The rats in Group 5 and 6 received a single dose of the Ket vehicle (Sal) or Ket (10 mg/kg), respectively, by i.p. injection on day 0. The rats in groups 3-6 were subjected to a FST on day 7 and a NSFT on day 10. All rats in groups 3-6 were fasted the night before for 20 hours the NSFT.
Study Design. Twenty-four (24) male Sprague Dawley rats weighing between 175 and 200 g were randomized into 4 study groups (n=6/group), following a 5-day acclimation period. On study day minus 1 rats were subjected to a pre-swim. Beginning on study day 0, rats in Groups 2 received a dose of Ket (10 mg/kg) on alternate days (day 0, 2, 4, and 6) each by i.p. injection. The rats in Groups 1 received a daily dose of Veh by oral gavage for 7 days (days 0 to 6). The rats in Groups 3 and 4 received a daily dose of NV-5138 (40 or 80 mg/kg) for 7 days (days 0 to 6) each by oral gavage. All rats were subjected to the FST on day 7, 24 hrs after last dosing. On day 8, 48 hrs after last dosing, the LMA of all rats was measured in an open field. Rats were then fasted for 20 hrs and subjected to the NSFT on day 9 (72 hrs post-last dose).
Preparation of Test Articles. Ket (Sigma, cat #K1884) was dissolved in Sal at a concentration of 10 mg/mL. Injection volumes (i.p) of 1 mL/kg of Ket were administered to Group 2. […]

[1] = Ket 10 mg/kg i.p. single dose, 3 days after dose
[2] = Ket 10 mg/kg i.p. single dose, 7 days after dose
[3] = NV-5138 160 mg/kg oral single dose, 3 days after dose
[4] = NV-5138 160 mg/kg oral single dose, 7 days after dose

Compound	FST time spent immobile [1]	decrease in FST time spent immobile vs Sal [1]	FST time spent immobile [2]	decrease in FST time spent immobile vs Sal [2]	FST immobility time (Example F, Veh-R IT infusion then NV-5138 160 mg/kg oral, 24 hrs after oral dosing)	decrease in FST immobility time vs Veh-R/Veh-NV (Example F, Veh-R IT infusion then NV-5138 160 mg/kg oral, 24 hrs, p<0.0001)	FST immobility time, R/NV-5138 vs Veh-R/Veh-NV (Example F, rapamycin (R, 0.01 nmol) IT infusion into PFC 30 min before NV-5138 160 mg/kg oral, 24 hrs)	FST time spent immobile [3]	decrease in FST time spent immobile vs Veh [3]	FST time spent immobile [4]	decrease in FST time spent immobile vs Veh [4]	FST (Example I, NV-5138 80 mg/kg oral daily for 7 days, day 7, 24 hrs after last dosing)
CNC1(c2ccccc2Cl)CCCCC1=O (stereo not drawn) [Ket, ketamine, reference compound]	95.5 ± 7.8 s	31%	95.0 ± 11.1 s	31%	–	–	–	–	–	–	–	–
CC(C)(C[C@H](N)C(=O)O)C(F)F [NV-5138]	–	–	–	–	144 ± 15 s	46%	lack of significant effect on immobility time	87.9 ± 9.0 s	39%	96.0 ± 11.3 s	34%	Significant effects
